Measured values published in patent US11802107B2, “Compounds and methods of use” (Signum Biosciences, Inc., priority 2017, dated 2023).
In brackets after ≈: the same amount, converted by molar mass.

Experiments:
IFNγ = experiment: PHA-induced IFNγ on PBMCs; format: cell-based; details: Homo sapiens, PBMC, PHA-L 20 μg/mL, 24 hours, ELISA
Method: Cryopreserved human Peripheral Blood Mononuclear cells (PBMCs) from healthy adult donors were obtained from Zen Bio, Inc (Cat No. SER-PBMC-F). Cells were cultured in 96-well plates with lymphocyte media (Cat No. LYMPH-1) and were pre-treated with test materials (≤100 μM) for 2 hours and later co-treated with test materials and PHA-L (Sigma Aldrich, Cat No. 11249738001) at 20 μg/mL and incubated for 24 hours at 37° C. and 5% CO2. After incubation, cell media supernatants were harvested and used to measure cytokine levels (IL-2, IFNγ) using ELISA kits (R&D Systems® #DY202, #DY285). Results were represented as percent of inhibition relative to untreated and PHA-only treated cells. IC50 values were determined by non-linear regression analysis using the four-parameter logistic equation.

IL-6 = experiment: Nickel (Ni2+)-induced IL-6 on HDMECs; format: cell-based; details: Homo sapiens; HDMEC, 1 mM NiSO4, 6 hours, ELISA; read-out: Nickel-HDMECs IL-6 Protein IC50
Method: Human Dermal Microvascular Endothelial cells (HDMECs) from human skin tissues were obtained from Sciencell, Inc. (Cat No. 2000). Cells were cultured in 96-well plates for 24 hours with ECM media (Cat No. 1001) supplemented with endothelial cell growth supplement (Cat No. 50015) and 5% v/v FBS. On Day 2, media was removed and replaced with supplement-depleted medium for 24 hours. On Day 3, media was removed and cells were pre-treated with test materials (≤10 μM) for 2 hours and later co-treated with test materials and 1 mM NiSO4 (Sigma-Aldrich, Cat No. 227676) for 6 hours at 37° C. and 5% CO2. After incubation, cell media supernatants were harvested and used to measure IL-6 levels using ELISA kit (BD Biosciences® #555220). Results were represented as percent of inhibition relative to untreated and NiSO4-only treated cells. IC50 values were determined by non-linear regression analysis using the four-parameter logistic equation.

IL-23 = experiment: LPS/IFNγ-induced IL-23 on CD14+ monocytes; format: cell-based; details: Homo sapiens, Monocyte, 50 μg/mL LPS + 5 μg/mL IFNγ, 24 hours, ELISA
Method: Cryopreserved human peripheral blood monocytes cells (CD14+) from healthy adult donors were obtained from Zen Bio, Inc (Cat No. SER-CD4-F). Cells were cultured in 96-well plates with lymphocyte media (Cat No. LYMPH-1) and were pre-treated with test materials (≤100 μM) for 2 hours and later co-treated with test materials and 50 μg/mL LPS, 5 μg/mL IFNγ (Sigma Aldrich, Cat No. L4321, SRP3058) and incubated for 24 hours at 37° C. and 5% CO2. After incubation, cell media supernatants were harvested and used to measure cytokine levels (IL-23) using ELISA kits (R&D Systems® #DY1290). Results were represented as percent of inhibition relative to untreated and […] treated cells. IC50 values were determined by non-linear regression analysis using the four-parameter logistic equation.

Swiss Webster (ICR) mice = experiment: TPA-induced skin irritation in vivo model (mouse ear); details: 24 hour
Method: Outbred male Swiss Webster (ICR) mice were purchased from Hilltop Lab Animals (Scottdale, PA) and were used between 10 and 12 weeks of age and we followed a similar protocol previously described (Gordon et al., 2008). Mice received 1.2 μg/20 μl TPA dissolved in acetone (10 μl applied both to the dorsal and ventral surfaces of the mouse ear using a solvent pipette) to each ear to induce acute irritation (6 per group). Test Materials were co-treated with TPA or applied 5 minutes after TPA dose, at various concentrations (0.6 to 800 μg/20 μl) in ethanol. After 24 hour treatment, edema was measured by ear thickness.

TSLP = experiment: S. aureus-induced TSLP on NHEKs; format: cell-based; details: Homo sapiens; NHEK, live S. aureus ATCC 33591 1:1, 24 hours, ELISA; read-out: S. aureus-NHEK TSLP Protein IC50
Method: Normal human epidermal keratinocytes (NHEKs) from neonatal donors were obtained from Thermo-Fisher (Cat No. C-001-5C). Cells were cultured in 96-well plates for 24 hours with EpiLife media (Cat No. MEPI500CA) supplemented with keratinocytes growth supplement (Cat No. 50015). On Day 2, media was removed and replaced with supplement-depleted medium for 24 hours. On Day 3, media was removed and cells were pre-treated with test materials (≤[…]) for 2 hours and later co-treated with test materials and live S. aureus (ATCC® 33591) at 1:1 NHEK:bacteria ratio for 24 hours at 37° C. and 5% CO2. After incubation, cell media supernatants were harvested and used to measure TSLP levels using ELISA kit (R&D Systems® #DY1398). Results were represented as percent of inhibition relative to untreated and S. aureus-only treated cells. IC50 values were determined by non-linear regression analysis using the four-parameter logistic equation.

IL-8 = experiment: P. acnes-induced IL-8 protein on human PBMCs (ELISA); format: cell-based; details: PBMCs + live P. acnes 1:1, test material 30 PM, 24 hours
Method: (§1) Cryopreserved human Peripheral Blood Mononuclear cells (PBMCs) from healthy adult donors were obtained from Zen Bio, Inc (Cat No. SER-PBMC-F). Cells were cultured in 12-well plates with lymphocyte media (Cat No. LYMPH-1) and incubated with test materials ([…]) and live P. acnes (ATCC® 6919TM) at 1:1 PBMC: P. acnes bacteria ratio for 24 hours at 37° C. and 5% CO2. After incubation, cell media supernatants were harvested and used to measure pro-inflammatory cytokine levels (IL-8, TNF-α, IL-1b, IL-17) using ELISA kits (BD Biosciences® #557966, #555212, #555244; R&D Systems® #DY317). Total RNA was extracted from cells using the RNAqueous® kit (Ambion®; Cat No. 1912) and cDNA was obtained using the High Capacity RNA-to-cDNA kit (Applied Biosystems®; Cat No. 4387406). Quantitative PCR (qPCR) was performed using the TaqMan® Fast Advanced Master Mix (Applied Biosystems®; Cat No. 4444556) and specific TaqMan®-probes human gene primers CXCL8 (IL-8), IL1B (IL-1b), TNF (TNF-α), IL17A (IL-17A) and GAPDH to calculate the relative gene fold expression change per treatment. Gene expression analysis was performed using the comparative Ct method (also known as the 2-[delta][delta]Ct) approach by comparing the Ct values of P. acnes-only treated cells with the untreated samples and normalized to GAPDH gene expression as endogenous housekeeping gene.

P. acnes (ATCC 6919) = experiment: Minimal bactericidal concentration (MBC) against P. acnes; format: cell-based, Propionibacterium acnes; details: Cutibacterium acnes, ATCC6919; P. acnes 10^7 CFU/mL, in PBS, anaerobic conditions
CXCL8 (IL-8) = experiment: P. acnes-induced IL-8 gene on human PBMCs (qPCR); format: cell-based; details: PBMC, PBMCs + live P. acnes 1:1, test material 30 PM, 24 hours
Method: as §1

[1] = topical @ 1% w/v, ear thickness

| Structure (SMILES) | IC50 (IFNγ) [µM] | IC50 (IL-6) [µM] | IC50 (IL-23) [µM] | IC50 (TSLP) [µM] | Edema (% inhibition) (Swiss Webster (ICR) mice; topical, AN2728 at 2%) [%] | Edema (% inhibition) (Swiss Webster (ICR) mice; [1]) [%] | IL-8 Protein % inhibition (IL-8) [%] | MBC (P. acnes (ATCC 6919)) [µg/mL] | inhibition at 30 pM (CXCL8 (IL-8)) [%] | MPO (% inhibition) (Swiss Webster (ICR) mice; topical @ 1% w/v) [%] |
| --- | --- | --- | --- | --- | --- | --- | --- | --- | --- | --- |
| N#Cc1ccc(Oc2ccc3c(c2)COB3O)cc1 [AN2728, reference compound] | 0.3 | 100 | 0.65 | 5 | 43 | – | – | – | – | – |
| C/C(=C\CSCC(NC(=O)NCC(=O)O)C(=O)O)CCCC(C)CCCC(C)CCCC(C)C (stereo not shown) [A] | – | 0.03 | – | 9 | – | 50 | – | – | – | – |

Further lines, with some results ahead:

| IC50 (IFNγ) [µM] | IC50 (IL-6) [µM] | IC50 (IL-23) [µM] | IC50 (TSLP) [µM] | Structure (SMILES) | Edema (% inhibition) (Swiss Webster (ICR) mice; topical, AN2728 at 2%) [%] | Edema (% inhibition) (Swiss Webster (ICR) mice; [1]) [%] | IL-8 Protein % inhibition (IL-8) [%] | MBC (P. acnes (ATCC 6919)) [µg/mL] | inhibition at 30 pM (CXCL8 (IL-8)) [%] | MPO (% inhibition) (Swiss Webster (ICR) mice; topical @ 1% w/v) [%] |
| --- | --- | --- | --- | --- | --- | --- | --- | --- | --- | --- |
| > 10 | 0.02 | 0.19 | 3 | C/C(=C\CSC[C@H](NC(=O)N(C)CC(=O)O)C(=O)O)CCCC(C)CCCC(C)CCCC(C)C (stereo partly drawn) [Compound C, (2R)-2-{[(carboxymethyl)(methyl)carbamoyl]amino}-3-{[(2E)-3,7,11,15-tetramethylhexadec-2-en-1-yl]sulfanyl}propanoic acid] | – | 64 | 8 | 22 (≈ 42.7 µM) | 0 | 88 |
| 1.4 | – | 11.2 | – | C/C(=C\CSC[C@H](NC(=O)N1CCC[C@H]1C(=O)O)C(=O)O)CCCC(C)CCCC(C)CCCC(C)C (stereo partly shown) [Compound E] | – | – | 67 | 7 (≈ 12.9 µM) | 8 | – |
| > 10 | – | 3.08 | – | C/C(=C\CSCC(NC(=O)N(CC(=O)O)CC(=O)O)C(=O)O)CCCC(C)CCCC(C)CCCC(C)C (stereo not shown) [Compound G] | – | – | 74 | 1 (≈ 1.79 µM) | 0 | – |
| > 10 | 0.01 | 0.05 | 10 | C/C(=C\CSC[C@H](NC(=O)COCC(=O)O)C(=O)O)CCCC(C)CCCC(C)CCCC(C)C (stereo partly shown) [Compound T] | – | 61 | – | – | 0 | 83 |
